# Like-named read-outs stand apart in the source and are kept apart here.
# Tests used:
# [1] = system: SKMEL-28 cells; assay: MTT cell viability assay, SKMEL-28 melanoma cells; type: cell-based, human; settings: for Cell viability inhibition, SKMEL-28 (result in words): 10–100 μM, 6, 24 and 48 h; for IC50: Homo sapiens, SK-MEL-28, 24 h
# Description: (§1) Three cell types were studied. The HT-144 and SKMEL-28 cell lines derived from human melanoma and were obtained from the American Tissue Culture Collection (ATCC). They were grown in Mc Coy’s 5a modified and minimal essential medium (MEM) respectively, supplemented with 10% (v/v) fetal bovine serum (FBS) and 1% (v/v) antibiotic (penicillin, streptomycin) at 37 °C in a humidified atmosphere of 5% CO2. Human dermal fibroblasts (HDF) were isolated from skin biopsies of healthy subjects. Briefly, the hypodermis was mechanically removed and explants were cut in 1 mm^2 pieces. Skin fragments were then cultivated in Dulbecco’s minimal essential medium (DMEM) supplemented with 20% FBS, 1% antibiotic and 1% fungizone at 37 °C in a humidified atmosphere of 5% CO2. The medium was changed every two days. After 4 weeks of cultures, fibroblasts have covered all the surface of the culture dishes and were trypsined. Cells were grown in DMEM containing 10% FBS and 1% antibiotic at 37 °C in a humidified atmosphere of 5% CO2. Subcultures 3 to 9 were used in this study.
# (§2) The three cell types were seeded into 96-well plates (0.32 cm^2, 5500 cells in 200 μL medium par well). After 24 h of culture, the cells were treated in triplicate wells with different bio-produced stilbenes and synthetic resveratrol (≥99%, Sigma-Aldrich, Saint-Quentin Fallavier, France) amounts and treatment times. Compounds were dissolved in ethanol at a 5 × 10^−2 M final concentration and stored at −20 °C. Compounds were diluted in culture media, with or without FBS, to the desired final concentration. All control and treated cells received a maximal volume of 0.1% (v/v) of ethanol.
# (§3) Cell viability was tested by the MTT [3-(4,5-dimethyl thiazol-2yl)-2,5-diphenyltetrazolium bromide] assay (Sigma-Aldrich). After MTT addition (0.5 mg/mL), the plates were incubated for 3 h at 37 °C in a humidified atmosphere of 5% CO2. At the end of the incubation period, the medium was removed and the converted dye was solubilized with dimethyl sulfoxide (DMSO). Absorbance of the converted dye was measured at a wavelength of 560 nm using a plate reader Tecan F200 Pro (Tecan, Lyon, France). The 50% inhibitory concentration (IC50) for each bio-produced stilbene was defined as the concentration producing 50% decrease in cell growth.
# [2] = system: HDF cells; assay: MTT cell viability assay, healthy human dermal fibroblasts; type: cell-based; settings: for Cell viability inhibition, HDF (result in words): 10–100 μM, 6, 24 and 48 h; for IC50: Homo sapiens, HDF, 24 h
# Description: as §1, §2, §3
# [3] = system: HT-144 cells; assay: MTT cell viability assay, HT-144 melanoma cells; type: cell-based, human; settings: for Cell viability inhibition, HT-144 (result in words): 10–100 μM, 6, 24 and 48 h; for IC50: Homo sapiens, HT-144, 24 h
# Description: as §1, §2, §3
# [4] = with FBS (10% FBS), read-out: IC50 SKMEL-28 with FBS
# [5] = without FBS (0% FBS), read-out: IC50 SKMEL-28 without FBS
# [6] = with FBS (10% FBS), read-out: IC50 HDF with FBS
# [7] = without FBS (0% FBS), read-out: IC50 HDF without FBS
# [8] = with FBS (10% FBS), read-out: IC50 HT-144 with FBS
# [9] = without FBS (0% FBS), read-out: IC50 HT-144 without FBS
Structure (SMILES),"Cell viability inhibition, SKMEL-28 (result in words) [1]","IC50 [1, 4]","IC50 [1, 5]","Cell viability inhibition, HDF (result in words) [2]","IC50 [2, 6]","IC50 [2, 7]","Cell viability inhibition, HT-144 (result in words) [3]","IC50 [3, 8]","IC50 [3, 9]"
Oc1ccc(C(O)C(Oc2ccc(C=Cc3cc(O)cc(O)c3)cc2)c2cc(O)cc(O)c2)cc1 (stereo not drawn) [Dimer (6)],significant cell viability inhibition,> 100 µM,23 ± 0.3 µM,significant cell viability inhibition,> 100 µM,22.2 ± 2.61 µM,significant cell viability inhibition,> 100 µM,24.9 ± 0.62 µM
"Oc1ccc([C@@H]2c3c(O)cc(O)cc3[C@H]3[C@H](c4ccc(O)cc4)c4c(O)cc(O)cc4[C@@H]23)cc1 [Pallidol, pallidol]",,> 100 µM,> 100 µM,,> 100 µM,> 100 µM,,> 100 µM,> 100 µM
"Oc1ccc(/C=C/c2cc(O)cc(O)c2)cc1 [Trans-resveratrol, trans-resveratrol]",,> 100 µM,> 100 µM,,> 100 µM,> 100 µM,,93.3 ± 7.6 µM,> 100 µM
"Oc1ccc(/C=C/c2cc(O)cc(O)c2)cc1 [synthetic resveratrol, trans-resveratrol, reference compound]",dose-dependent decrease in cell growth,,,dose-dependent decrease in cell growth,,,dose-dependent decrease in cell growth,,
"Oc1ccc(/C=C/c2cc(O)cc3c2[C@@H](c2cc(O)cc(O)c2)[C@H](c2ccc(O)cc2)O3)cc1 [ɛ-viniferin, ε-viniferin]",significant cell viability inhibition,86.6 ± 2.59 µM,15.9 ± 0.44 µM,significant cell viability inhibition,91.9 ± 11.3 µM,16.4 ± 1.19 µM,significant cell viability inhibition,82.3 ± 3.23 µM,17.58 ± 0.09 µM
